For one assay, the target named is T1, DP Ibovine (Bos taurus, UniProt Q3ZCJ8).
T1 construct: Inaktivierung der DP I aus Rinder- bzw. humaner Niere mittels H-Gly-Phe-NHO-Bz; from tissue; host or cells: bovine kidney
As to the kind of experiment: Inactivation of DP I from bovine kidney (second-order rate constants). Format: biochemical, Rinder.

In another assay the target is T2, DP Ihum (Homo sapiens, UniProt P53634).
T2 construct: DP I (humane Niere); from tissue; host or cells: human kidney
As to the kind of experiment: Inactivation of DP I from human kidney (second-order rate constants). Format: biochemical.

Assay [1] concerns DP I. Conditions: literature (Nikawa et al., 1992); cited from earlier work.
The target of the next assay is T3, Cathepsin B (hum. Leber) (Homo sapiens, UniProt P07858).
T3 construct: Cathepsin B (hum. Leber); from tissue; host or cells: human liver
As to the kind of experiment: Inactivation of cathepsin B (second-order rate constants). The settings on record: Table 3. Format: biochemical.

For a further assay, the target named is T4, Cathepsin L (hum. Leber) (Homo sapiens, UniProt P07711).
T4 construct: Cathepsin L (hum. Leber); from tissue; host or cells: human liver
As to the kind of experiment: Inactivation of cathepsin L (second-order rate constants). Format: biochemical. Conditions: Table 3.

Assay [2] deals with DP I (Homo sapiens, UniProt P53634). As to the kind of experiment: Protection of glucagon from degradation by DP I, MALDI-TOF mass spectra. Format: biochemical. Conditions: 0.14 mM Glukagon, 40 mM TRIS/HCl pH 7,6; enzyme 15 nM; inhibitor 300 nM, 5 min preincubation with DP I. An excerpt: Schutz des Abbaus des Peptidhormons Glukagon durch Vorinkubation von DP I mit H-Gly-Phe-NHO-Bz
Abbildung 1: MALDI-TOF-Massenspektren von Reaktionslösungen, die Glukagon und DP I enthalten.

Assay [3] relates to "DCE" (Dynorphin Converting Enzyme). Conditions: Demuth et al. 1991; cited from earlier work.
The mark [4] stands for this setting: DP Ibovine, inhibitor concentration 1e^-4 M, Table 2.
Where [5] appears, read: DP Ihum, inhibitor concentration 1e^-4 M, Table 2.
The mark [6] stands for this setting: DP Ibovine, inhibitor concentration 2e^-5 M, Table 2.
Setting [7] is: DP Ihum, inhibitor concentration 2e^-5 M, Table 2.

Entries after “also recorded” stand apart in the source; their conditions may differ.

T1 sequence (Q3ZCJ8 231-394 limits assumed): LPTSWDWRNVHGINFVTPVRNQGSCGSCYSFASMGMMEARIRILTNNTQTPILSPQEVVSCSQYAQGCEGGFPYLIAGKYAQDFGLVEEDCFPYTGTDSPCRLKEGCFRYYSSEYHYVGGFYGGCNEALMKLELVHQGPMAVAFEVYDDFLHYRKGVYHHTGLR
T1 sequence (Q3ZCJ8 25-143 limits assumed): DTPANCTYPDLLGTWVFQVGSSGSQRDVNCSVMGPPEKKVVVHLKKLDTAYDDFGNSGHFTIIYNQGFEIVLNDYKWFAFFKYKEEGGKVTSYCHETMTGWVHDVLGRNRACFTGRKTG
T1 sequence (Q3ZCJ8 395-463 limits assumed): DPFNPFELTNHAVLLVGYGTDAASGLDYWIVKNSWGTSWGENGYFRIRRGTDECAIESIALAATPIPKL
T2 sequence (P53634 231-394 limits assumed): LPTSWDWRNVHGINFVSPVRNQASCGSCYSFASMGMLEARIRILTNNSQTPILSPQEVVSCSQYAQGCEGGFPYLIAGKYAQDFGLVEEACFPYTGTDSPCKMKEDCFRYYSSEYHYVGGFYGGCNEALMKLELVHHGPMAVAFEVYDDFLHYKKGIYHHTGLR
T2 sequence (P53634 25-143 limits assumed): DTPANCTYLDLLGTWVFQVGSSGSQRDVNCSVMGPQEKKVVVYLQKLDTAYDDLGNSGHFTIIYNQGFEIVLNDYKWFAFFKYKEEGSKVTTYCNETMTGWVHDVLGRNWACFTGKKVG
T2 sequence (P53634 395-463 limits assumed): as the sequence (Q3ZCJ8 395-463 limits assumed) above, with A22S, L26M, S38G, L61V counted along it
T4 sequence (P07711 114-333): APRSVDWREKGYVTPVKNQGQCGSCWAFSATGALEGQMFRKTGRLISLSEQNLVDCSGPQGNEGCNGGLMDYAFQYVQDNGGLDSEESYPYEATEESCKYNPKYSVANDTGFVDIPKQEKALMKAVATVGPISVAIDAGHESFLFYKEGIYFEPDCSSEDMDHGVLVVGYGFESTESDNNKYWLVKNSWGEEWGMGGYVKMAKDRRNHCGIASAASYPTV
Sequence of DP I (Homo sapiens, UniProt P53634) (P53634 25-463): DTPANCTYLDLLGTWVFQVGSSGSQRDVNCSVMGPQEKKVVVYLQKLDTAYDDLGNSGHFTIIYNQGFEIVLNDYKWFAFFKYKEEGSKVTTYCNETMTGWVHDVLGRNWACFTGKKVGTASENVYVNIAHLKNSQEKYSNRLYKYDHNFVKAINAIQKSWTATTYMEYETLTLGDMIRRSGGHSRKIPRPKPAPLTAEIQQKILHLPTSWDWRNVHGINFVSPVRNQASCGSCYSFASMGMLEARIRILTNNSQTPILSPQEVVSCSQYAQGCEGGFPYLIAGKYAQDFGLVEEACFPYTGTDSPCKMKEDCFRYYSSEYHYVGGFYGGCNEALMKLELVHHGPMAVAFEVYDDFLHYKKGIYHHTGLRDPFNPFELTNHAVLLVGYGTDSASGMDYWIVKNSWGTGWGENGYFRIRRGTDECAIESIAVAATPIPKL

As to `C[C@H](NC(=O)OC(C)(C)C)C(=O)N[C@@H](C)C(=O)N[C@@H](C)C(=O)NOC(=O)c1ccccc1` [Boc-Ala-Ala-Ala-NHO-Bz], the kinact/Ki entry on DP Ibovine (setting [4]) and at DP Ihum (setting [5]) was “keine Hemmung (1e^-4)” in each case.

`C[C@H](NC(=O)OC(C)(C)C)C(=O)N[C@@H](C)C(=O)NOC(=O)c1ccccc1` [Boc-Ala-Ala-NHO-Bz]: the kinact/Ki entry at DP Ibovine (setting [4]) and at DP Ihum (setting [5]) was “keine Hemmung (1e^-4)” each time.

With `C[C@H](NC(=O)OC(C)(C)C)C(=O)N1CCC[C@H]1C(=O)N[C@@H](Cc1ccccc1)C(=O)NOC(=O)c1ccccc1` [Boc-Ala-Pro-Phe-NHO-Bz], the kinact/Ki result on DP Ibovine (setting [4]) and on DP Ihum (setting [5]) was “keine Hemmung (1e^-4)” in each case.

Turning to `CC(C)C[C@H](NC(=O)[C@H]1O[C@@H]1C(=O)O)C(=O)NCCCCN=C(N)N` [E-64], the “Inhibierung der DP I” value in the assay on DP I [1] is given as “nur schwach inhibiert; also recorded: inert”.

In the case of `NCC(=O)N[C@@H](Cc1ccccc1)C(=O)NOC(=O)c1ccccc1` [H-Gly-Phe-NHO-Bz, N-(H-Gly-Phe-),O-Benzoyl Hydroxylamin], the second-order inactivation constant (kinact/KI) at DP Ibovine (DP I from bovine kidney, Table 1) is 36700 M⁻¹ s⁻¹; at DP Ihum (DP I from human kidney, Table 1) it was 35000 M⁻¹ s⁻¹; on Cathepsin B (hum. Leber), 87 M⁻¹ s⁻¹; on Cathepsin L (hum. Leber) it was 37 M⁻¹ s⁻¹. Also, the kinact/Ki on DP Ihum (DP I (humane Niere), Table 3) is 34979 s^-1M^-1. Further, the “Inhibierung des Glukagonabbaus durch DP I” value at DP I [2] is listed as “Inhibierung des Glukagonabbaus”.

Turning to `N[C@@H](Cc1ccc(O)cc1)C(=O)NCC(=O)NOC(=O)c1ccccc1` [H-Tyr-Gly-NHO-Bz], the second-order inactivation constant (kinact/KI) was found to be 3950 M⁻¹ s⁻¹ at DP Ibovine (DP Ibovine, inhibitor concentration 1e^-6 M, Table 2) and 3620 M⁻¹ s⁻¹ at DP Ihum (DP Ihum, inhibitor concentration 1e^-6 M, Table 2). Also, in assay [3], the “Inhibierung des Enzyms DCE” value is “nur schwach und reversibel inhibiert”.

As for `CC(=O)N[C@@H](CC(C)C)C(=O)N[C@@H](CC(C)C)C(=O)N[C@H](C=O)CCCNC(=N)N` [Leupeptin], the “Inhibierung der DP I” value in the assay on DP I [1] was “nur schwach inhibiert”.

On to `Cc1ccc(C(=O)ONC(=O)[C@H](Cc2ccccc2)NC(=O)CNC(=O)OCc2ccccc2)cc1` [Z-Gly-Phe-NHO-Bz-CH3], for which the kinact/Ki entry on DP Ibovine (setting [6]) and at DP Ihum (setting [7]) was “keine Hemmung (2e^-5)” throughout.

For `O=C(CNC(=O)OCc1ccccc1)N[C@@H](Cc1ccccc1)C(=O)NOC(=O)c1ccccc1` [Z-Gly-Phe-NHO-Bz], the kinact/Ki entry at DP Ihum (DP I (humane Niere), Table 3) was “Keine Hemmung”. In addition, the values for the kinact/KI on Cathepsin B (hum. Leber) and at Cathepsin L (hum. Leber) were 418 M⁻¹ s⁻¹ and 223 M⁻¹ s⁻¹, respectively.

Consider H-Ile-Pro-NHO-Nb, for which the kinact/Ki at DP Ibovine (setting [6]) came out at 149 M⁻¹ s⁻¹; on DP Ihum (setting [7]), 208 M⁻¹ s⁻¹.

As a reminder, the kinact/KI is the maximal inactivation rate divided by the concentration that gives half of it.

The record behind these values is EP1188765B1, “Medical Use of Mechanism-oriented inhibitors of dipeptidyl peptidase I” (Probiodrug AG, priority 1998, dated 2000).
